Assay results from PubChem BioAssay (NCI).
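Tested at 5 concentrations; 48 h exposure; 96-well plates; endpoints linearly interpolated, else capped at highest concentration. GI50: concentration for 50% inhibition of growth. Definition used: TGI = concentration required for complete inhibition of growth.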

What was measured:
Assay in all cases: NCI-60 cell line screen, 48 h
CCRF-CEM leukemia = system: CCRF-CEM leukemia
HCT-15 colon = system: HCT-15 colon
OVCAR-8 ovarian = system: OVCAR-8 ovarian
MDA-N = system: MDA-N
HS 578T breast = system: HS 578T breast
T-47D breast = system: T-47D breast
SF-295 CNS = system: SF-295 CNS
HCC-2998 colon = system: HCC-2998 colon
SR leukemia = system: SR leukemia
UACC-62 melanoma = system: UACC-62 melanoma
MALME-3M melanoma = system: MALME-3M melanoma
NCI-H460 lung = system: NCI-H460 lung
A549 NSCLC = system: A549 NSCLC
SK-MEL-2 melanoma = system: SK-MEL-2 melanoma
OVCAR-3 ovarian = system: OVCAR-3 ovarian
SK-MEL-5 melanoma = system: SK-MEL-5 melanoma

SMILES | TGI (CCRF-CEM leukemia) | TGI (HCT-15 colon) | TGI (OVCAR-8 ovarian) | TGI (MDA-N) | TGI (HS 578T breast) | TGI (T-47D breast) | TGI (SF-295 CNS) | TGI (HCC-2998 colon) | TGI (SR leukemia) | TGI (UACC-62 melanoma) | TGI (MALME-3M melanoma) | TGI (NCI-H460 lung) | TGI (A549 NSCLC) | TGI (SK-MEL-2 melanoma) | TGI (OVCAR-3 ovarian) | TGI (SK-MEL-5 melanoma) | GI50 (T-47D breast) | GI50 (UACC-62 melanoma)
CCOC(=O)c1cn2c(n1)sc1c(Cl)c(Cl)ccc12 | > 100 µM | > 100 µM | > 66 µM | 3.83 µM | 28.6 µM | > 90.5 µM | > 100 µM | 98 µM | > 55.2 µM | > 100 µM | 8.92 µM | > 100 µM | > 100 µM | > 100 µM | > 58.1 µM | 65.7 µM | – | –
C=CCC1(OC(C)=O)C2OC(=O)C1(O)OCC2O (stereo not drawn) | > 100 µM | > 100 µM | > 100 µM | > 100 µM | > 100 µM | > 100 µM | > 100 µM | > 100 µM | > 100 µM | > 100 µM | > 100 µM | > 100 µM | > 100 µM | > 100 µM | > 100 µM | > 100 µM | – | –
CNc1ccc2c(c1)[C@@]1(C)c3ccccc3[C@@H](C2)N1C | 52.7 µM | 53 µM | – | 74.7 µM | > 100 µM | > 100 µM | > 100 µM | 44.5 µM | 54.7 µM | 35.7 µM | 82.1 µM | 39.9 µM | > 100 µM | 51.7 µM | 50.5 µM | 32 µM | – | –
COc1ccc(C(=O)c2sc(Nc3ccc(Cl)cc3)nc2N)cc1 | 58.1 µM | > 100 µM | > 100 µM | > 22.2 µM | 47.4 µM | > 100 µM | 46.7 µM | 44.7 µM | > 45.2 µM | > 100 µM | > 59.4 µM | 36.3 µM | > 59.6 µM | > 49.1 µM | 35 µM | > 100 µM | – | –
COc1cc(-c2cc(-c3ccccc3)nc(-c3c(OC)ccc4c(C)cc(=O)oc34)c2)cc(OC)c1OC | > 100 µM | > 100 µM | > 100 µM | > 100 µM | > 100 µM | > 100 µM | > 100 µM | > 100 µM | > 100 µM | > 100 µM | > 100 µM | > 100 µM | > 100 µM | > 100 µM | > 100 µM | > 100 µM | – | –
CCOP(=O)(OCC)C(Nc1ccc(Br)cc1)c1cccc([N+](=O)[O-])c1 (stereo not drawn) | 49.1 µM | 31.7 µM | > 100 µM | 37.2 µM | 61.1 µM | 37.1 µM | 28.3 µM | 32.4 µM | 56.2 µM | 29.6 µM | 37.9 µM | 29.3 µM | 34.7 µM | 31.4 µM | 35.6 µM | 28.3 µM | – | –
Clc1cc(Cl)cc(C=NC23CC4CC(CC(C4)C2)C3)c1 | > 10 µM | > 10 µM | > 10 µM | > 10 µM | > 10 µM | > 10 µM | > 10 µM | > 10 µM | > 10 µM | > 10 µM | > 10 µM | > 10 µM | > 10 µM | > 10 µM | > 10 µM | > 10 µM | – | –
Cc1nn(C(=O)c2ccc(Cl)cc2)c2c1C(c1ccccc1[N+](=O)[O-])SC(N)=N2 (stereo not drawn) | > 10 µM | > 10 µM | > 10 µM | > 10 µM | > 10 µM | > 10 µM | > 10 µM | > 10 µM | > 10 µM | > 10 µM | > 10 µM | > 10 µM | > 10 µM | > 10 µM | > 10 µM | > 10 µM | – | –
Cn1c(O)c(C=Nc2ccccc2[N+](=O)[O-])c(=O)n(C)c1=O | > 100 µM | > 100 µM | > 100 µM | > 100 µM | > 100 µM | > 100 µM | > 100 µM | > 100 µM | > 100 µM | > 100 µM | > 100 µM | > 100 µM | > 100 µM | > 100 µM | > 100 µM | > 100 µM | – | –
Cn1c2ccc3cc2c(=S)c2cc(ccc21)OCCOCCOCCOCCOCCO3 | > 10 µM | > 10 µM | > 10 µM | > 10 µM | > 10 µM | > 10 µM | > 10 µM | > 10 µM | > 10 µM | > 10 µM | > 10 µM | > 10 µM | > 10 µM | > 10 µM | > 10 µM | > 10 µM | – | –
CC(C)(C)OC(=O)N1CCC(C(=O)O)CC1 | > 100 µM | > 100 µM | > 100 µM | > 100 µM | > 100 µM | > 100 µM | > 100 µM | > 100 µM | > 100 µM | > 100 µM | > 100 µM | > 100 µM | > 100 µM | > 100 µM | > 100 µM | > 100 µM | – | –
C[C@@H](c1ccccc1)N1CN(C(=O)OCc2ccccc2)C(C)(C)CC1=O | > 100 µM | > 100 µM | > 100 µM | > 100 µM | > 100 µM | > 100 µM | > 100 µM | > 100 µM | > 100 µM | > 100 µM | > 100 µM | > 100 µM | > 100 µM | > 100 µM | > 100 µM | > 100 µM | – | –
CN1CCN(c2ncc3c(n2)sc2c(=O)n(-c4ccccc4)cnc23)CC1 | > 100 µM | > 100 µM | > 100 µM | > 100 µM | > 100 µM | > 100 µM | > 100 µM | > 100 µM | > 100 µM | > 100 µM | > 100 µM | > 100 µM | > 100 µM | > 100 µM | > 100 µM | > 100 µM | – | –
COC(=O)CNS(=O)(=O)c1ccc(-c2c3nc(c(-c4ccc(S(=O)(=O)NCC(=O)OC)cc4)c4ccc([nH]4)c(-c4ccc(S(=O)(=O)NCC(=O)OC)cc4)c4nc(c(-c5ccc(S(=O)(=O)NCC(=O)OC)cc5)c5ccc2[nH]5)C=C4)C=C3)cc1 | > 100 µM | > 100 µM | > 100 µM | > 100 µM | > 100 µM | > 100 µM | > 100 µM | > 100 µM | > 100 µM | > 100 µM | > 100 µM | > 100 µM | > 100 µM | > 100 µM | > 100 µM | > 100 µM | – | –
C[C@H](NC(=O)c1ccc(CNC(=O)/C=C/c2cccc(Oc3ccccc3)c2)cc1)c1ccccc1 | > 100 µM | > 100 µM | > 100 µM | > 100 µM | > 100 µM | > 100 µM | > 100 µM | > 100 µM | > 100 µM | > 100 µM | > 100 µM | > 100 µM | > 100 µM | > 100 µM | > 100 µM | > 100 µM | – | –
O=C1CSC(c2ccc([N+](=O)[O-])cc2)N1c1ccc(-n2c(-c3ccccc3)nc3ccccc3c2=O)cc1 (stereo not drawn) | > 100 µM | > 100 µM | > 100 µM | > 100 µM | > 100 µM | > 100 µM | > 100 µM | > 100 µM | > 100 µM | > 100 µM | > 100 µM | > 100 µM | > 100 µM | > 100 µM | > 100 µM | > 100 µM | – | –
O=c1c2nc3ccccc3c(=O)n2ncn1-c1ccccc1Cl | > 100 µM | > 100 µM | > 100 µM | > 100 µM | > 100 µM | > 100 µM | > 100 µM | > 100 µM | > 100 µM | > 100 µM | > 100 µM | > 100 µM | > 100 µM | > 100 µM | > 100 µM | > 100 µM | – | –
Cc1cccc(CP(Cc2cccc(C)c2)CC2(Cp3c4ccccc4c4ccccc43)COC2)c1 | > 100 µM | > 100 µM | > 100 µM | > 100 µM | > 100 µM | > 100 µM | > 100 µM | > 100 µM | > 94.4 µM | > 100 µM | > 83.3 µM | > 100 µM | > 100 µM | > 94.7 µM | > 100 µM | 13.4 µM | – | –
CCCNC(=O)CCC(C)C1CCC2C3C(C[C@H](OC(C)=O)[C@]12C)[C@@]1(C)CCC2(C[C@H]1C[C@H]3OC(C)=O)OOC1(CC[C@]3(C)C4C[C@H](OC(C)=O)[C@]5(C)C(C(C)CCC(=O)NCCC)CCC5C4[C@H](OC(C)=O)C[C@@H]3C1)OO2 (stereo partly drawn) | > 100 µM | > 100 µM | > 93.9 µM | > 100 µM | 98.2 µM | > 100 µM | > 100 µM | > 100 µM | > 100 µM | > 100 µM | > 100 µM | > 100 µM | > 100 µM | > 100 µM | > 100 µM | > 100 µM | > 100 µM | > 67 µM
Brc1cc(CCOC2CCCCO2)c(-c2sccc2CCOC2CCCCO2)s1 (stereo not drawn) | > 82.5 µM | > 100 µM | > 100 µM | > 100 µM | > 95.7 µM | > 100 µM | > 100 µM | > 100 µM | 49.1 µM | > 100 µM | 87.7 µM | > 100 µM | > 100 µM | 98.4 µM | > 100 µM | > 100 µM | – | –
CCn1c(SCC(=O)NNC(=S)Nc2ccc([N+](=O)[O-])cc2)nc2ccccc2c1=O | > 100 µM | > 100 µM | > 100 µM | > 100 µM | > 100 µM | > 100 µM | > 100 µM | > 100 µM | > 100 µM | > 100 µM | > 100 µM | > 100 µM | > 100 µM | > 100 µM | > 100 µM | > 100 µM | – | –
COC(=O)C1CN=CN1CCc1ccccc1 (stereo not drawn) | > 100 µM | > 100 µM | > 100 µM | > 100 µM | > 100 µM | > 100 µM | > 100 µM | > 100 µM | > 100 µM | > 100 µM | > 100 µM | > 100 µM | > 100 µM | > 100 µM | > 100 µM | > 100 µM | – | –
